Reference: US8476265B2, “Compounds-801” (AstraZeneca AB, priority 2010, dated 2013)

What was measured:
[1] = target: T1, human muscarinic acetylcholine M3 receptor (Homo sapiens, UniProt P20309); experiment: Muscarinic 3 receptor binding assay ([3H]NMS competition, SPA), single concentration 1 μM; conditions: 1 μM compound; % inhibition specific [3H]-NMS binding
T1 construct: expressed in transfected cells; host or cells: CHO-K1 (Chinese Hamster Ovary) cell membranes
Experimental: The following experimental procedure was used to determine the M3% inhibition at 1 μM of the compounds of Examples 99-175
Muscarinic 3 Receptor Binding Assay
The activity (% inhibition specific binding) of compounds on the M3 receptor is determined by competition binding of [^3H]N-methyl scopolamine (NMS) to CHO-K1 (Chinese Hamster Ovary) cell membranes expressing the human muscarinic acetylcholine M3 receptor (M3-ACh) in a scintillation proximity assay (SPA) format. SPA beads are precoated with membranes and then incubated at 2 mg of beads per well with 1 μM compound of the invention, [^3H]NMS at 0.1 nM, quarter Kd (experimentally determined dissociation constant) and assay buffer (20 mM HEPES pH 7.4 containing 5 mM MgCl2 and 0.1% (w/v) bovine serum albumin). The assay is conducted in a final volume of 200 μL, in the presence of 1% (v/v) dimethyl sulphoxide (DMSO). Total binding of [^3H]NMS is determined in the absence of competing compound and non-specific binding of [^3H]NMS is determined in the presence of 1 μM atropine. The plates are incubated for 16 hours at room temperature and then read on Wallac Microbeta™ using a normalised ^3H protocol. The compound activity at 1 μM, defined as % inhibition specific [^3H]-NMS binding, is determined.

Adrenergic β2 = target: T2, Adrenergic β2 (Homo sapiens, UniProt P07550); experiment: Adrenergic β2 mediated cAMP production in H292 cells, single concentration 1 μM; type: cell-based; conditions: NCI-H292, 1 μM compound, cAMP as percentage of the maximum response generated by 1E-07M formoterol, read-out: β2 % effect @1 uM
T2 construct: Adherent H292 cells are removed from tissue culture flasks by treatment with Accutase™ cell detachment solution; endogenous in cells; host or cells: H292 cells
Experimental: The following experimental procedure was used to measure the beta-2% effect at 1 μM for the compounds of Examples 99-175. Adrenergic p2 Mediated cAMP Production Cell Preparation
H292 cells are grown in 225 cm2 flasks incubator at 37° C., 5% CO2 in RPMI medium containing 10% (v/v) FBS (foetal bovine serum) and 2 mM L-glutamine.
Compounds are prepared by an initial first dilution into DMSO to give 1 mM stock concentration. This is followed by a 1 in 10 dilution of the stock concentration (10 μl stock compound +90 μl DMSO) to give 0.1 mM compound. A compound addition plate is prepared by making a further 1 in 25 dilution in assay buffer (HBSS solution containing 10 mM HEPES pH7.4 and 5 mM glucose) containing 4% dimethylsulfoxide. The final compound concentration in assay is 1 μM.
Adherent H292 cells are removed from tissue culture flasks by treatment with Accutase™ cell detachment solution for 15 minutes. Flasks are incubated for 15 minutes in a humidified incubator at 37° C., 5% CO2. Detached cells are re-suspended in RPMI media (containing 10% (v/v) FBS and 2 mM L-glutamine) at 0.1×10^6 cells per mL. 10000 cells in 100 μL are added to each well of a tissue-culture-treated 96-well plate and the cells incubated overnight in a humidified incubator at 37° C., 5% CO2. The culture media is removed and cells are washed twice with 100 μL assay buffer and replaced with 50 μL assay buffer (HBSS solution containing 10 mM HEPES pH7.4 and 5 mM glucose). Cells are rested at room temperature for 20 minutes after which time 25 μL of rolipram (1.2 mM made up in assay buffer) is added. Cells are incubated with rolipram for 10 minutes after which time 25 μl test compounds are added and the cells are incubated for 60 minutes at room temperature. The final rolipram concentration in the assay is 300 μM and final vehicle concentration is 1% (v/v) dimethylsulphoxide. The reaction is stopped by removing supernatants, washing once with 100 μL assay buffer and replacing with 50 μL lysis buffer. The cell monolayer is frozen at −80° C. for 30 minutes (or overnight).
AlphaScreen™ cAMP Detection
The concentration of cAMP (cyclic adenosine monophosphate) in the cell lysate is determined using AlphaScreen™ methodology. The frozen cell plate is thawed for 20 minutes on a plate shaker then 10 μL of the cell lysate is transferred to a 96-well white plate. 40 μl of mixed AlphaScreen™ detection beads (containing equal volumes of donor beads (pre-incubated with biotinylated cAMP in the dark for 30 minutes) and acceptor beads is added to each well and the plate incubated at room temperature for 3 hours in the dark. The AlphaScreen™ signal is measured using an EnVision spectrophotometer (Perkin-Elmer Inc.) with the recommended manufacturer's settings. Concentration of cAMP produced per well were calculated with reference to the cAMP standard curve determined in the same experiment and expressed as a percentage of the maximum response generated by 1E-07M formoterol.

T2 sequence (P07550 whole entry): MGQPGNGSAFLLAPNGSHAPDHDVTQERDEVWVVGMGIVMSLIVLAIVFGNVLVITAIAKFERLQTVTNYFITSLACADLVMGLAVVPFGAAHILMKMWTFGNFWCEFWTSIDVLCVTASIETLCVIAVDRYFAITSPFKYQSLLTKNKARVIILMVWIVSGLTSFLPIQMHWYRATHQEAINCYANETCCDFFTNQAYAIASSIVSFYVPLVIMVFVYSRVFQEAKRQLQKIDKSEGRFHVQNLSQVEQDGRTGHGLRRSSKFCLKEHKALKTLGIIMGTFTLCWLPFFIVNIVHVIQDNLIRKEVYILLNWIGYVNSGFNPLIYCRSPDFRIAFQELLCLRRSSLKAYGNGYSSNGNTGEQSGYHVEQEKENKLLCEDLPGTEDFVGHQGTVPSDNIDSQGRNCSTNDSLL
T1 sequence (P20309 whole entry): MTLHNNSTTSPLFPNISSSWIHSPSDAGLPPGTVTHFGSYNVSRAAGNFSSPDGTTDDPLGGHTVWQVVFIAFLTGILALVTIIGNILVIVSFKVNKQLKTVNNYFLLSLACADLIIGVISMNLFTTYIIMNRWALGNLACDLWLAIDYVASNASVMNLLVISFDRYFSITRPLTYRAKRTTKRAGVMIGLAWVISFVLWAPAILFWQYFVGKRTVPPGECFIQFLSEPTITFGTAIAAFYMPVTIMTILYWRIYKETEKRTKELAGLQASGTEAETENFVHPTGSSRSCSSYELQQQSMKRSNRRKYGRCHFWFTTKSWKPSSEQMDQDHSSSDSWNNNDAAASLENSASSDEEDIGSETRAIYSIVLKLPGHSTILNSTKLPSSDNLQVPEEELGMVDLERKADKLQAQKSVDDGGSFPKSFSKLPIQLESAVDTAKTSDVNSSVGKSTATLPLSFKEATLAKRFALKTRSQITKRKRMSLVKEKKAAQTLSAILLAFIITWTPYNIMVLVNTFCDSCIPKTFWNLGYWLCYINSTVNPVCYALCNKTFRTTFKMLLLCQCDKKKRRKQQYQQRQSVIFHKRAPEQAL

Row | inhibition at 1 µM [1] | percent of formoterol maximum response at 1 µM (Adrenergic β2) | SMILES
1 | 99% | 97% | O=C1COc2c(CCNCCN(C(=O)CCOCCc3cccc(CN4CCC5(CC4)CN(C(=O)c4[nH]nc6c4CCCC6)CCO5)c3)C3CCCCC3)ccc(O)c2N1 [Example 123, N-Cyclohexyl-N-(2-(2-(5-hydroxy-3-oxo-3,4-dihydro-2H-benzo[b][1,4]oxazin-8-yl)ethylamino)ethyl)-3-(3-((4-(4,5,6,7-tetrahydro-2H-indazole-3-carbonyl)-1-oxa-4,9-diazaspiro[5.5]undecan-9-yl)methyl)phenethoxy)propanamide]
2 | 100% | 101% | O=C1COc2c(CCNCCN(C(=O)CCOCCc3cccc(CN4CCC5(CC4)CN(C(=O)Cc4noc6ccccc46)CCO5)c3)C3CCCCC3)ccc(O)c2N1 [Example 124, 3-(3-((4-(2-(Benzo[d]isoxazol-3-yl)acetyl)-1-oxa-4,9-diazaspiro[5.5]undecan-9-yl)methyl)phenethoxy)-N-cyclohexyl-N-(2-(2-(5-hydroxy-3-oxo-3,4-dihydro-2H-benzo[b][1,4]oxazin-8-yl)ethylamino)ethyl)propanamide]
3 | 93% | 114% | O=C1COc2c(CCNCCN(C(=O)CCOCCc3cccc(CN4CCC5(CC4)CN(C(=O)Cn4cnc6ccccc64)CCO5)c3)C3CCCCC3)ccc(O)c2N1 [Example 125, 3-(3-((4-(2-(1H-Benzo[d]imidazol-1-yl)acetyl)-1-oxa-4,9-diazaspiro[5.5]undecan-9-yl)methyl)phenethoxy)-N-cyclohexyl-N-(2-(2-(5-hydroxy-3-oxo-3,4-dihydro-2H-benzo[b][1,4]oxazin-8-yl)ethylamino)ethyl)propanamide]
4 | 101% | 103% | O=C1COc2c(CCNCCN(C(=O)CCOCCc3cccc(CN4CCC5(CC4)CN(C(=O)COCc4nc6ccccc6s4)CCO5)c3)C3CCCCC3)ccc(O)c2N1 [Example 126, 3-(3-((4-(2-(Benzo[d]thiazol-2-ylmethoxy)acetyl)-1-oxa-4,9-diazaspiro[5.5]undecan-9-yl)methyl)phenethoxy)-N-cyclohexyl-N-(2-(2-(5-hydroxy-3-oxo-3,4-dihydro-2H-benzo[b][1,4]oxazin-8-yl)ethylamino)ethyl)propanamide]
5 | 97% | 110% | Cc1ccccc1OCC(=O)N1CCOC2(CCN(Cc3cccc(CCOCCC(=O)N(CCNCCc4ccc(O)c5c4OCC(=O)N5)C4CCCCC4)c3)CC2)C1 [Example 127, N-Cyclohexyl-N-(2-(2-(5-hydroxy-3-oxo-3,4-dihydro-2H-benzo[b][1,4]oxazin-8-yl)ethylamino)ethyl)-3-(3-((4-(2-(o-tolyloxy)acetyl)-1-oxa-4,9-diazaspiro[5.5]undecan-9-yl)methyl)phenethoxy)propanamide]
6 | 99% | 110% | O=C1COc2c(CCNCCN(C(=O)CCOCCc3cccc(CN4CCC5(CC4)CN(C(=O)[C@@H](O)C4CCCCC4)CCO5)c3)C3CCCCC3)ccc(O)c2N1 [Example 129, (S)-N-Cyclohexyl-3-(3-((4-(2-cyclohexyl-2-hydroxyacetyl)-1-oxa-4,9-diazaspiro[5.5]undecan-9-yl)methyl)phenethoxy)-N-(2-(2-(5-hydroxy-3-oxo-3,4-dihydro-2H-benzo[b][1,4]oxazin-8-yl)ethylamino)ethyl)propanamide]
7 | 99% | 114% | O=C1COc2c(CCNCCN(C(=O)CCOCCc3cccc(CN4CCC5(CC4)CN(C(=O)[C@H](O)c4cccc(Cl)c4)CCO5)c3)C3CCCCC3)ccc(O)c2N1 [Example 130, (R)-3-(3-((4-(2-(3-Chlorophenyl)-2-hydroxyacetyl)-1-oxa-4,9-diazaspiro[5.5]undecan-9-yl)methyl)phenethoxy)-N-cyclohexyl-N-(2-(2-(5-hydroxy-3-oxo-3,4-dihydro-2H-benzo[b][1,4]oxazin-8-yl)ethylamino)ethyl)propanamide]
8 | 99% | 97% | O=C1COc2c(CCNCCN(C(=O)CCOCCc3cccc(CN4CCC5(CC4)CN(C(=O)CC4C[C@@H]6CC[C@H]4C6)CCO5)c3)C3CCCCC3)ccc(O)c2N1 (stereo partly drawn) [Example 131, 3-(3-((4-(2-((1S,4R)-Bicyclo[2.2.1]heptan-2-yl)acetyl)-1-oxa-4,9-diazaspiro[5.5]undecan-9-yl)methyl)phenethoxy)-N-cyclohexyl-N-(2-(2-(5-hydroxy-3-oxo-3,4-dihydro-2H-benzo[b][1,4]oxazin-8-yl)ethylamino)ethyl)propanamide]
9 | 101% | 96% | O=C1COc2c(CCNCCN(C(=O)CCOCCc3cccc(CN4CCC5(CC4)CN(C(=O)c4cc(Br)c[nH]4)CCO5)c3)C3CCCCC3)ccc(O)c2N1 [Example 132, 3-(3-((4-(4-Bromo-1H-pyrrole-2-carbonyl)-1-oxa-4,9-diazaspiro[5.5]undecan-9-yl)methyl)phenethoxy)-N-cyclohexyl-N-(2-(2-(5-hydroxy-3-oxo-3,4-dihydro-2H-benzo[b][1,4]oxazin-8-yl)ethylamino)ethyl)propanamide]
10 | 101% | 83% | O=C1COc2c(CCNCCN(C(=O)CCOCCc3cccc(CN4CCC5(CC4)CN(C(=O)c4n[nH]cc4Cl)CCO5)c3)C3CCCCC3)ccc(O)c2N1 [Example 133, 3-(3-((4-(4-Chloro-1H-pyrazole-3-carbonyl)-1-oxa-4,9-diazaspiro[5.5]undecan-9-yl)methyl)phenethoxy)-N-cyclohexyl-N-(2-(2-(5-hydroxy-3-oxo-3,4-dihydro-2H-benzo[b][1,4]oxazin-8-yl)ethylamino)ethyl)propanamide]
11 | 97% | 89% | O=C1COc2c(CCNCCN(C(=O)CCOCCc3cccc(CN4CCC5(CC4)CN(C(=O)[C@@H](O)Cc4ccccc4)CCO5)c3)C3CCCCC3)ccc(O)c2N1 [Example 134, (S)-N-Cyclohexyl-N-(2-(2-(5-hydroxy-3-oxo-3,4-dihydro-2H-benzo[b][1,4]oxazin-8-yl)ethylamino)ethyl)-3-(3-((4-(2-hydroxy-3-phenylpropanoyl)-1-oxa-4,9-diazaspiro[5.5]undecan-9-yl)methyl)phenethoxy)propanamide]
12 | 66% | 86% | O=C1COc2c(CCNCCN(C(=O)CCOCCc3cccc(CN4CCC5(CC4)CN(C(=O)c4ccc(-n6ccnc6)cc4)CCO5)c3)C3CCCCC3)ccc(O)c2N1 [Example 135, 3-(3-((4-(4-(1H-Imidazol-1-yl)benzoyl)-1-oxa-4,9-diazaspiro[5.5]undecan-9-yl)methyl)phenethoxy)-N-cyclohexyl-N-(2-(2-(5-hydroxy-3-oxo-3,4-dihydro-2H-benzo[b][1,4]oxazin-8-yl)ethylamino)ethyl)propanamide]
